Assay: molar heat capacity at constant pressure
Conditions: 101.33 kPa, Crystal, Vacuum adiabatic calorimetry

O=C([O-])[O-].[Pb+2] [lead(II) carbonate]
Conditions | molar heat capacity at constant pressure [J/K/mol]
4.385 K | 0.052
4.419 K | 0.0555
4.738 K | 0.06322
4.754 K | 0.06377
5 K | 0.0763
5.09 K | 0.08024
5.104 K | 0.08019
5.342 K | 0.09726
5.363 K | 0.09954
5.585 K | 0.1145
5.612 K | 0.1163
5.83 K | 0.1316
5.868 K | 0.1342
6.078 K | 0.1519
6.126 K | 0.1554
6.413 K | 0.1893
6.471 K | 0.1928
6.838 K | 0.2414
6.899 K | 0.256
7.267 K | 0.3073
7.34 K | 0.322
7.699 K | 0.3863
7.78 K | 0.4013
8.134 K | 0.4809
8.222 K | 0.5005
8.575 K | 0.5882
8.668 K | 0.606
9.015 K | 0.7106
9.108 K | 0.7478
9.458 K | 0.85
9.558 K | 0.8902
9.903 K | 1.01
10 K | 1.048
10.01 K | 1.055
10.57 K | 1.286
10.68 K | 1.33
11.46 K | 1.695
11.57 K | 1.751
12.36 K | 2.155
12.47 K | 2.216
13.27 K | 2.654
13.38 K | 2.746
14.19 K | 3.244
14.31 K | 3.33
15 K | 3.776
15.13 K | 3.866
15.25 K | 3.962
16.07 K | 4.511
16.2 K | 4.595
17.03 K | 5.162
17.16 K | 5.276
17.99 K | 5.902
18.12 K | 6.01
18.95 K | 6.635
19.09 K | 6.747
19.93 K | 7.37
20 K | 7.42
20.06 K | 7.466
21.41 K | 8.521
21.54 K | 8.639
23.39 K | 10.08
23.53 K | 10.19
25 K | 11.38
25.4 K | 11.68
27.41 K | 13.32
29.43 K | 14.96
30 K | 15.38
31.45 K | 16.55
33.46 K | 18.13
35 K | 19.37
35.48 K | 19.73
36.7 K | 20.7
37.49 K | 21.32
38.5 K | 22.12
40 K | 23.28
40.51 K | 23.65
42.52 K | 25.25
44.53 K | 26.66
45 K | 27.01
46.54 K | 28.07
48.55 K | 29.49
50 K | 30.59
50.55 K | 30.94
52.55 K | 32.41
54.56 K | 33.8
55 K | 33.98
56.56 K | 35.05
58.57 K | 36.13
60 K | 37.15
60.52 K | 37.48
62.4 K | 38.61
64.2 K | 39.65
65 K | 40.1
65.95 K | 40.66
67.63 K | 41.57
69.27 K | 42.35
70 K | 42.8
71.59 K | 43.59
74.62 K | 45.09
75 K | 45.29
77.67 K | 46.51
79.9 K | 47.55
80 K | 47.58
80.72 K | 47.85
83.04 K | 48.9
85 K | 49.68
86.1 K | 50.14
89.18 K | 51.33
90 K | 51.61
92.25 K | 52.45
95 K | 53.38
95.34 K | 53.5
98.43 K | 54.49
100 K | 55
101.53 K | 55.5
104.63 K | 56.35
107.75 K | 57.22
110 K | 57.87
110.87 K | 58.11
114 K | 58.89
117.14 K | 59.63
120 K | 60.33
120.28 K | 60.41
123.43 K | 61.11
126.59 K | 61.8
129.77 K | 62.5
130 K | 62.53
132.94 K | 63.15
136.13 K | 63.79
139.31 K | 64.43
140 K | 64.55
142.51 K | 65.03
145.71 K | 65.61
148.92 K | 66.19
150 K | 66.42
152.13 K | 66.84
155.35 K | 67.35
158.57 K | 67.88
160 K | 68.14
161.81 K | 68.4
165.05 K | 68.98
168.31 K | 69.49
170 K | 69.74
171.58 K | 70.05
174.85 K | 70.51
178.14 K | 70.92
180 K | 71.28
181.44 K | 71.38
184.74 K | 71.87
188.04 K | 72.41
190 K | 72.72
191.34 K | 72.91
194.61 K | 73.4
197.88 K | 73.88
200 K | 74.07
201.13 K | 74.3
204.38 K | 74.74
207.61 K | 75.11
210 K | 75.37
210.84 K | 75.52
214.06 K | 75.82
217.25 K | 76.33
220 K | 76.66
220.45 K | 76.69
223.63 K | 77.07
226.8 K | 77.37

Source: the NIST ThermoML archive (doi:10.1016/j.jct.2011.10.014)
